Data set [1] has as its system p33-specific CD8+ T cells. The data set is described as follows: p33-specific CD8+ T cell function, intracellular interferon-γ by FACS, Imiquimod as adjuvant. The format is in vivo, C57BL/6 mice. The note with it: 10 μg p33, day 8. How it is done: C57BL/6 mice were immunized with the immunodominant MHC class I binding epitope of the lymphocytic choriomeninigitis virus glycoprotein, p33 (SEQ. ID. No. 11). On day 8 after immunization mice were bled to analyze p33-specific CD8+ T cell function by FACS staining of CD8, CD44 and intracellular interferon-γ production after a 4-hour in vitro stimulation with p33. All groups of mice received the same dose of 10 μg p33. The adjuvant Imiquimod, however, was administered by different routes and in different doses. Mice were either injected intralymphatically with 250 μg or 25 μg of Imiquimod, or they were injected subcutaneously with 250 μg or 25 μg of Imiquimod. Control mice were immunized with p33, but received no Imiquimod.

For data set [2] the following is noted: including fatigue, malaise, fever, headache, and lymphocytopenia; cited from earlier work.
Another data set has as its system IFN-gamma. The data set is described as follows: IFN-gamma in supernatants of restimulated splenocytes after s.c. peptide in IFA. The note with it: subcutaneous immunization in combination with IFA; compared to non-self PSMA 730-739. In kind it is in vivo, mice. The protocol:
Alternatively, mice were immunized with the PSMA 288-297 or PSMA 730-739 epitope peptide in IFA and peptide by subcutaneous injection (5 μg peptide in 100 μl, twice, at day 0 and 7). One week after the last administration, splenocytes were stimulated ex vivo with 5 μg (FIG. 7, top panel), 10 μg (FIG. 7, middle panel) and 20 μg/ml (FIG. 7, bottom panel) of peptide for 3 days and the IFN-gamma concentration in cell supernatants measured by ELISA.

Consider `CC(C)Cn1cnc2c(N)nc3ccccc3c21` [Imiquimod, 1-(2-methylpropyl)-1H-imidazol [4,5-c]quinolin-4-amine], for which the “induction of p33-specific CD8+ T cells” value is listed as “enhanced induction of p33-specific CD8+ T cells” in data set [1] (250 μg Imiquimod intralymphatically) and “not after subcutaneous administration” in data set [1] (250 μg Imiquimod subcutaneous). For the same molecule, the “toxicity when systemically administered” value in data set [2] was “significant toxicity when systemically administered”.
Consider “PSMA 288-297: SEQ. ID. No. 5, self epitope conserved between mouse and human (GLPSIPVHPI; Synthetically prepared peptide sequence)”, for which the “immune responsiveness (IFN-gamma)” value in the data set with IFN-gamma was “decreased immune responsiveness”.

The values are drawn from patent US20060153844A1, “Methods to trigger, maintain and manipulate immune responses by targeted administration of biological response modifiers into lymphoid organs” (priority 2004, published 2006).
